Measurements reported in PubChem BioAssay (NCI).
Several values for one entry are separate records, joined by “and”; a condition that tells them apart may be missing. Identical values can stand only once.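 Values below derive from 48-hour exposures of cells grown in 96-well plates, with endpoints linearly interpolated between the two concentrations bracketing the appropriate inhibition level. Here, GI50 denotes the concentration required for 50% inhibition of growth. TGI is the concentration that stops growth completely.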

Tests used:
Test in all cases: NCI-60 cell line screen, 48 h
SK-MEL-5 melanoma = tested on: SK-MEL-5 melanoma
SK-MEL-2 melanoma = tested on: SK-MEL-2 melanoma
HCT-15 colon = tested on: HCT-15 colon
CAKI-1 renal = tested on: CAKI-1 renal
UACC-62 melanoma = tested on: UACC-62 melanoma
UACC-257 melanoma = tested on: UACC-257 melanoma
M14 melanoma = tested on: M14 melanoma
SNB-75 CNS = tested on: SNB-75 CNS
KM12 colon = tested on: KM12 colon
SF-539 CNS = tested on: SF-539 CNS

| Compound | GI50 (SK-MEL-5 melanoma) | TGI (SK-MEL-5 melanoma) | GI50 (SK-MEL-2 melanoma) | TGI (SK-MEL-2 melanoma) | GI50 (HCT-15 colon) | TGI (HCT-15 colon) | GI50 (CAKI-1 renal) | TGI (CAKI-1 renal) | GI50 (UACC-62 melanoma) | TGI (UACC-62 melanoma) | GI50 (UACC-257 melanoma) | TGI (UACC-257 melanoma) | GI50 (M14 melanoma) | TGI (M14 melanoma) | GI50 (SNB-75 CNS) | TGI (SNB-75 CNS) | GI50 (KM12 colon) | TGI (KM12 colon) | GI50 (SF-539 CNS) | TGI (SF-539 CNS) |
| --- | --- | --- | --- | --- | --- | --- | --- | --- | --- | --- | --- | --- | --- | --- | --- | --- | --- | --- | --- | --- |
| CC(=O)[CH-]C(=O)c1ccccc1.CC(=O)[CH-]C(=O)c1ccccc1.[O-]c1ccc(O)cc1.[O-]c1ccc(O)cc1.[Ti+4] | 16.2 µM | 30.3 µM | 14.6 µM | 28.2 µM | 15.7 µM | 37.6 µM | 17 µM | 34.1 µM | 16.2 µM | 31.3 µM | 21.5 µM | 70.7 µM | 15.6 µM | 30.8 µM | 14.3 µM | 28.1 µM | 15.3 µM | 33 µM | 11.7 µM | 24.1 µM |
| COc1cc([N+](=O)[O-])c(S(=O)(=O)O)cc1-n1nc(-c2ccccc2)n[n+]1-c1cc(S(=O)(=O)[O-])c([N+](=O)[O-])cc1OC |  | > 100 µM |  | > 100 µM |  | > 100 µM |  | > 100 µM |  | > 100 µM |  | > 100 µM |  | > 100 µM |  | > 100 µM |  | > 100 µM |  | > 100 µM |
| CCc1nc2cc(/C=C/C(=O)NO)c(F)cc2c(=O)n1CCc1ccccc1 | 0.512 µM | 2.52 µM | 2.64 µM | 9.37 µM | 0.461 µM | 16.5 µM | 0.822 µM | 6.2 µM | 0.597 µM | 3.38 µM | 2.12 µM | 7.41 µM | 1.15 µM | 3.8 µM | 2.41 µM | 17.3 µM | 2.14 µM | 15.5 µM | 0.874 µM | 5.8 µM |
| COc1cc2c3c(n(CCCn4cccn4)c(=O)c2cc1OC)-c1cc2c(cc1C3=O)OCO2 | 1.48 µM | 5.24 µM | 59.9 µM | > 100 µM | 14.7 µM | > 100 µM | 0.577 µM |  | 0.359 µM | 1.78 µM | 9.92 µM | > 100 µM | 0.461 µM | 5.07 µM | 1.53 µM | 15.4 µM | 5.11 µM | > 54.5 µM | 0.56 µM | 5.08 µM |
| COc1cc2c(cc1OCCN1C(=O)c3cccc4cccc(c34)C1=O)N=C[C@@H]1CCCN1C2=O | 13.1 µM | 15.5 µM and 28.2 µM | 16.6 µM | 14.5 µM and 32.7 µM | 18.6 µM | 21.4 µM and 40.2 µM | 18.8 µM | 19.8 µM and 36.2 µM | 17.8 µM | 14.9 µM and 37.5 µM | 18 µM | 19 µM and 35.8 µM | 22.5 µM | 15.7 µM and 70.6 µM |  | 45 µM | 12.4 µM | 50 µM and 24.9 µM |  | 17.3 µM |
| COC(=O)c1c(C(=O)OC)c(C(=O)OC)c(C(=O)OC)c1C(=O)OC |  | > 100 µM |  | > 100 µM |  | > 100 µM |  | > 100 µM |  | > 100 µM |  | > 100 µM |  | > 100 µM |  | > 100 µM |  | > 100 µM |  | > 100 µM |
| CN([N-]C(=O)CC(=O)[N-]N(C)C(=S)c1ccccc1)C(=S)c1ccccc1.[Cu+2] | 0.0599 µM | 0.192 µM | 0.113 µM | 0.263 µM | 0.0228 µM | 0.13 µM | 0.0459 µM | 0.159 µM | 0.0332 µM | 0.149 µM | < 0.01 µM | 0.063 µM | 0.0377 µM | 0.172 µM | 0.0298 µM | 0.116 µM | 0.0353 µM | 0.152 µM | 0.142 µM | 0.275 µM |
| COc1ccc(S(=O)(=O)N2CCCCC2)cc1NC(=O)c1[nH]c(C)c2c1CCCCC2=O | 1.4 µM | 3.88 µM | 2.4 µM | 31 µM | 1.15 µM | > 100 µM | 0.419 µM | 56.7 µM | 0.356 µM | 7.74 µM | 0.853 µM | 24.7 µM | 1.49 µM | > 100 µM | 0.141 µM | 3.46 µM | 4.36 µM | > 100 µM | 2.31 µM | > 100 µM |
